According to publication PMC7108740, “Exploring the molecular structures that confer ligand selectivity for galanin type II and III receptors” (PLoS ONE, 2020):
Changes are numbered by the printed parent chain. Ends that are not written are not given here.

Assays:
GALR3 = molecular target: T1, GALR3 (Homo sapiens, UniProt O60755); test: SRE-luc luciferase assay, WT GALR3; assay type: cell-based; set-up: host or cells: HEK293 cells stably expressing Gqi; settings: SRE-luc in HEK293 Gqi cells, ligand 6 h, mean ± SE, at least three independent experiments, SEM
T1 sequence (O60755 1-368): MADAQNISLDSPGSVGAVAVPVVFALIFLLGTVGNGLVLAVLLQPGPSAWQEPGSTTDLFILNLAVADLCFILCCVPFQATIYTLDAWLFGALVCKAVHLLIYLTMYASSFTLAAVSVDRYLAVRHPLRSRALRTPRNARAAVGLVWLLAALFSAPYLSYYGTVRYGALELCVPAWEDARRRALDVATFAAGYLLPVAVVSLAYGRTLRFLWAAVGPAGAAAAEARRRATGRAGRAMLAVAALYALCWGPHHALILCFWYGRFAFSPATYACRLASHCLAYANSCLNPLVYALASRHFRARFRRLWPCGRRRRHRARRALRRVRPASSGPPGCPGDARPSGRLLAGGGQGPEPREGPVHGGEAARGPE
Description: The pcDNA3.1 vector was purchased from Invitrogen (San Diego, CA, USA). The serum response element (SRE)-luciferase (SRE-luc) vector containing a single copy of the SRE (CCATATTAGG) conjugated with luciferase was purchased from Stratagene (La Jolla, CA, USA). The cDNAs for human GALR1, GALR2, and GALR3 were obtained from BRN SCIENCE, Inc. The cDNAs were inserted into the EcoRⅠ and XhoⅠ sites of pcDNA3.1.
HEK293 cells stably expressing the Gqi construct, which allows induction of Gq-dependent signaling pathways upon activation of a Gi-coupled receptor [14, 30], were maintained in Dulbecco's Modified Eagle's Medium (DMEM) in the presence of 10% fetal bovine serum and 1% penicillin and streptomycin. For all transfections, 200 ng DNA (100 ng receptor and 100 ng SRE-luc) mixed with lipofectamine 2000 was applied to 60–80% confluent cells on a multi-well plate according to the manufacturer's instructions (Invitrogen, Carlsbad, CA).
For luciferase assays, HEK293 Gqi cells were seeded on 48-well plates at a density of 2.5 × 10^4 cells/well one day before transfection. A mixture including 100 ng SRE-luc reporter construct, 100 ng expression plasmid, and lipofectamine 2000 reagent in diluted Opti-MEM (Gibco) was incubated at room temperature for 20 min and then added into each well according to the manufacturer's instructions (Invitrogen, CA, USA). Before exposure to the ligands, the cells were maintained in serum-free DMEM for 16–18 h. Approximately 48 h after transfection, the cells were treated with ligand for 6 h. The cells were then lysed by the addition of 100 μl lysis buffer. The luciferase activity in 50 μl cell extract was determined using a luciferase assay system according to the standard protocol for the Synergy 2 Multi-Mode Microplate Reader (BioTek, Winooski, VT, USA).
Data analysis was performed by non-linear regression with a sigmoidal dose-response curve. The concentrations of agonists that induced half-maximal stimulation (EC50) were calculated using the GraphPad PRISM5 software (GraphPad software, Inc., San Diego, CA). All data are presented as the mean ± standard error (SE) of at least three independent experiments.

[1] = molecular target: T2, GALR3 double mutant L^100F, Y^107H (Homo sapiens, UniProt O60755, L100F/Y107H); test: SRE-luc luciferase assay, GALR3 L100F,Y107H; assay type: cell-based; settings: GALR3 L^100F, SRE-luc in HEK293 Gqi cells, ligand 6 h, mean ± S.E., SEM
T2 construct: expressed in transfected cells; host or cells: HEK293 cells stably expressing Gqi
T2 sequence (O60755 1-368 L100F/Y107H): T1 sequence (O60755 1-368) with L100F, Y107H
Description: For domain swapping between GALR2 and GALR3, individual cDNA fragments of interest were amplified by polymerase chain reaction (PCR) with Pfu polymerase (ELPIS Biotech, Daejeon, Korea) and two specific primers, one corresponding to the 5' or 3' end of the GALR2 or GALR3 cDNA and the other to the region of overlap between the two receptors. The two resulting fragments, one from GALR2 and the other from GALR3, were subjected to a second round of PCR to generate the chimeric cDNAs. To construct single, double-, triple-, pentuple-, hextuple-, and septuple-mutant receptors, amino acids of GALR3 were substituted for the amino acids at the corresponding positions in GALR2 using PCR-based site-directed mutagenesis. All of the chimeric constructs were cloned into the pcDNA3 expression vector at HindⅢ and XbaⅠ sites. The DNA sequences of the chimeras were verified by automatic sequencing. HEK293 cells stably expressing the Gqi construct, which allows induction of Gq-dependent signaling pathways upon activation of a Gi-coupled receptor [14, 30], were maintained in Dulbecco's Modified Eagle's Medium (DMEM) in the presence of 10% fetal bovine serum and 1% penicillin and streptomycin. For all transfections, 200 ng DNA (100 ng receptor and 100 ng SRE-luc) mixed with lipofectamine 2000 was applied to 60–80% confluent cells on a multi-well plate according to the manufacturer's instructions (Invitrogen, Carlsbad, CA). For luciferase assays, HEK293 Gqi cells were seeded on 48-well plates at a density of 2.5 × 10^4 cells/well one day before transfection. […] The luciferase activity in 50 μl cell extract was determined using a luciferase assay system according to the standard protocol for the Synergy 2 Multi-Mode Microplate Reader (BioTek, Winooski, VT, USA). […] The concentrations of agonists that induced half-maximal stimulation (EC50) were calculated using the GraphPad PRISM5 software (GraphPad software, Inc., San Diego, CA). […]

EC50 (GALR3) [nM] | EC50 [1] [nM] | Molecule
333 ± 55.7 |  | NWTPQAMLYLKGPQ-NH2 [P^13-SPX]
398 ± 96.1 | 155 ± 40.1 | NWTPNAMLYLKGAQ-NH2 [N^5-SPX]
115 | 38.9 ± 7.28 | CSCC[C@H](NC(=O)[C@H](C)NC(=O)[C@H](CCC(N)=O)NC(=O)[C@@H]1CCCN1C(=O)[C@@H](NC(=O)[C@H](Cc1c[nH]c2ccccc12)NC(=O)[C@@H](N)CC(N)=O)[C@@H](C)O)C(=O)N[C@@H](CC(C)C)C(=O)N[C@@H](Cc1ccc(O)cc1)C(=O)N[C@@H](CC(C)C)C(=O)N[C@@H](CCCCN)C(=O)NCC(=O)N[C@@H](C)C(=O)N[C@@H](CCC(N)=O)C(N)=O [SPX, reference compound]
 | 69.2 ± 20.2 | NWTPQAALYLKGAQ-NH2 [A^7-SPX]
